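Results reflect a 48-hour exposure of cells in 96-well plates to compound at five concentrations. At the GI50, growth is halved. TGI: total growth inhibition.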
Key:
Test in all cases: growth of human tumour cells (NCI), 48 h
IGROV1 ovarian = test system: IGROV1 ovarian
OVCAR-3 ovarian = test system: OVCAR-3 ovarian
UACC-62 melanoma = test system: UACC-62 melanoma
COLO 205 colon = test system: COLO 205 colon
SNB-19 CNS = test system: SNB-19 CNS
EKVX NSCLC = test system: EKVX NSCLC
SK-MEL-28 melanoma = test system: SK-MEL-28 melanoma
A549 NSCLC = test system: A549 NSCLC
HOP-92 NSCLC = test system: HOP-92 NSCLC
U251 CNS = test system: U251 CNS
HT29 colon = test system: HT29 colon
OVCAR-4 ovarian = test system: OVCAR-4 ovarian
RXF 393 renal = test system: RXF 393 renal

With `O=C(N/N=C/c1cc(Br)cc(Br)c1[O-])c1ccccc1O.O=C(N/N=C/c1cc(Br)cc(Br)c1[O-])c1ccccc1O.[Zn+2]` the TGI (IGROV1 ovarian) was 5.55 µM, the TGI (OVCAR-3 ovarian) was 0.742 µM and the TGI (UACC-62 melanoma) was 2.34 µM. It also gave a TGI (COLO 205 colon) of 20.9 µM, a TGI (SNB-19 CNS) of 12.2 µM and a TGI (EKVX NSCLC) of 10.9 µM. The TGI (SK-MEL-28 melanoma) was 11.5 µM, the TGI (A549 NSCLC) was 21.6 µM and the TGI (HOP-92 NSCLC) was 5.09 µM. The TGI (U251 CNS) was 2.01 µM, the TGI (HT29 colon) was 12.3 µM and the TGI (OVCAR-4 ovarian) was 1.5 µM. It also gave a TGI (RXF 393 renal) of 11.9 µM.
`COc1cc(C2(c3ncc[nH]3)SSSCC2O)ccc1O` (stereo not given) was tested, and the TGI (IGROV1 ovarian) was > 100 µM, the TGI (OVCAR-3 ovarian) was > 71.7 µM and the TGI (UACC-62 melanoma) was > 51.2 µM. The TGI (COLO 205 colon) was > 59.8 µM, the TGI (SNB-19 CNS) was > 100 µM and the TGI (EKVX NSCLC) was > 100 µM. The TGI (SK-MEL-28 melanoma) was > 100 µM, the TGI (A549 NSCLC) was > 100 µM and the TGI (HOP-92 NSCLC) was 58.3 µM. The TGI (U251 CNS) was > 100 µM, the TGI (HT29 colon) was > 100 µM and the TGI (OVCAR-4 ovarian) was > 63.7 µM. The TGI (RXF 393 renal) was 89.4 µM.
`CCOC(=O)/C(=N/Nc1ccccc1)N1C(=S)C=C(C)NN(C)C1=S` was tested, and the TGI (IGROV1 ovarian) was > 100 µM, the TGI (OVCAR-3 ovarian) was > 100 µM and the TGI (UACC-62 melanoma) was > 100 µM. The TGI (COLO 205 colon) was > 100 µM, the TGI (SNB-19 CNS) was > 100 µM and the TGI (EKVX NSCLC) was > 100 µM. For the same compound, the TGI (SK-MEL-28 melanoma) was > 100 µM, the TGI (A549 NSCLC) was > 100 µM and the TGI (HOP-92 NSCLC) was > 100 µM. For the same compound, the TGI (U251 CNS) was 50.9 µM, the TGI (HT29 colon) was > 100 µM and the TGI (OVCAR-4 ovarian) was > 100 µM. For the same compound, the TGI (RXF 393 renal) was 20.1 µM.
`CC(C)C1NC(=O)CC(c2ccccc2)N(N=O)C1c1ccccc1` (stereo not given) was tested, and the TGI (IGROV1 ovarian) was > 100 µM, the TGI (OVCAR-3 ovarian) was > 100 µM and the TGI (UACC-62 melanoma) was > 100 µM. For the same compound, the TGI (COLO 205 colon) was > 100 µM, the TGI (SNB-19 CNS) was > 100 µM and the TGI (EKVX NSCLC) was > 100 µM. For the same compound, the TGI (SK-MEL-28 melanoma) was > 100 µM, the TGI (A549 NSCLC) was > 100 µM and the TGI (HOP-92 NSCLC) was > 100 µM. The TGI (U251 CNS) was > 100 µM, the TGI (HT29 colon) was > 100 µM and the TGI (OVCAR-4 ovarian) was > 100 µM. The TGI (RXF 393 renal) was > 100 µM.
In the case of `Cc1c(N=C/C=C/c2ccccc2)c(=O)n(-c2ccccc2)n1C`, the TGI (IGROV1 ovarian) is reported as > 100 µM, the TGI (OVCAR-3 ovarian) is reported as 67.9 µM and the TGI (UACC-62 melanoma) is reported as 36 µM. The TGI (COLO 205 colon) was > 100 µM, the TGI (SNB-19 CNS) was > 100 µM and the TGI (EKVX NSCLC) was 81.8 µM. The TGI (SK-MEL-28 melanoma) was 39.8 µM, the TGI (A549 NSCLC) was > 100 µM and the TGI (HOP-92 NSCLC) was > 100 µM. The TGI (U251 CNS) was 73.3 µM, the TGI (HT29 colon) was > 100 µM and the TGI (OVCAR-4 ovarian) was 40.9 µM. The TGI (RXF 393 renal) was > 100 µM.
In the case of `C/C(=N\NC(=O)c1ccccc1O)c1cccc(/C(C)=N/NC(=O)c2ccccc2O)n1.O=S(=O)([O-])[O-].[Fe+2]`, the GI50 (IGROV1 ovarian) is reported as 47.7 µM, the TGI (IGROV1 ovarian) is reported as > 100 µM and the GI50 (OVCAR-3 ovarian) is reported as > 100 µM. The TGI (OVCAR-3 ovarian) was > 100 µM, the TGI (UACC-62 melanoma) was > 100 µM and the GI50 (COLO 205 colon) was > 100 µM. The TGI (COLO 205 colon) was > 100 µM, the GI50 (SNB-19 CNS) was > 100 µM and the TGI (SNB-19 CNS) was > 100 µM. The TGI (EKVX NSCLC) was > 100 µM, the GI50 (SK-MEL-28 melanoma) was > 100 µM and the TGI (SK-MEL-28 melanoma) was > 100 µM. For the same compound, the TGI (A549 NSCLC) was > 100 µM, the TGI (HOP-92 NSCLC) was > 100 µM and the GI50 (U251 CNS) was 59.1 µM. The TGI (U251 CNS) was > 100 µM, the TGI (HT29 colon) was > 100 µM and the GI50 (OVCAR-4 ovarian) was > 100 µM. The TGI (OVCAR-4 ovarian) was > 100 µM and the TGI (RXF 393 renal) was > 100 µM.

Source: PubChem BioAssay (NCI)
